Experimental data from US9422248B2 (University of Iowa Research Foundation, priority 2012, dated 2016).
Values joined by “and” are separate entries in the source; they are usually repeats but may differ in a detail not shown here. Identical values can stand only once. Like-named read-outs stand apart in the source and are kept apart here.

Assays:
6 Hz (32 mA) model = assay: 6 Hz (32 mA) psychomotor seizure model of partial epilepsy; assay type: in vivo, mouse; conditions: for ED50: ip; for complete protection, animals: 6 Hz, one or more time points from 0.25 or 1 h; for antiseizure activity in the 6 Hz model: mouse, in vivo; for Protective effects, number of animals protected/number of animals tested: 100 mg/kg ip
Description: (§1) All compounds (FIG. 1) were screened in three whole mouse models: the maximal electroshock model (MES), the scMET test (pentylenetetrazole, Metrazol), and the 6 Hz psychomotor seizure model of partial epilepsy (32 mA). Adult male CF No 1 albino mice (26-30 g) were used for the 6 Hz test and 18-25 g mice were used in the MES and scMet tests. The animals are housed, fed, and handled in a manner consistent with the recommendations in the National Council Publication, “Guide for the Care and Use of Laboratory Animals”. The animal studies were performed by the NINDS Anticonvulsant Screening Program under IACUC number 09-12014. All compounds were administered ip in polyethylene glycol, 30%.
(§2) The 6 Hz test (also known as the minimal clonic seizure, or psychomotor test) involved delivering a corneal stimulus of 32 mA for 3 s. This current elicits psychomotor seizures in 97% of untreated animals. Seizures consist of a minimal clonic phase followed by stereotyped automatistic behaviors. Animals not showing such behaviors were considered protected. Toxicity was determined by the rotorod test. For this test, the animal is placed on a rotorod at 6 rpm following dosing. The animal is considered toxic if it falls off the rotorod three times in a 1 min period. The ED50, TD50 and confidence intervals were determined by probit analysis.

rotorod test = assay: Toxicity by the rotorod test; assay type: in vivo; conditions: for TD50: rotorod, ip, probit analysis
Description: All compounds (FIG. 1) were screened in three whole mouse models: the maximal electroshock model (MES), the scMET test (pentylenetetrazole, Metrazol), and the 6 Hz psychomotor seizure model of partial epilepsy (32 mA). Adult male CF No 1 albino mice (26-30 g) were used for the 6 Hz test and 18-25 g mice were used in the MES and scMet tests. The animals are housed, fed, and handled in a manner consistent with the recommendations in the National Council Publication, “Guide for the Care and Use of Laboratory Animals”. […] All compounds were administered ip in polyethylene glycol, 30%.
as §2, with “This current elicits psychomotor seizures in 97% of untreated animals.” left out

[1] = system: scMET model (pentylenetetrazole, Metrazol); assay: scMET test (subcutaneous Metrazol); assay type: in vivo, mouse; conditions: for responders at 30 mg/kg / responders at 100 mg/kg / responders at 300 mg/kg: Mus musculus, scMET, read-out: number of animals protected/number of animals tested; for responders at 30 mg/kg: 30 mg/kg ip; for responders at 100 mg/kg: 100 mg/kg ip; for responders at 300 mg/kg: 300 mg/kg ip
Description: as §1
(§3) The MES model, which generates generalized tonic-clonic seizures, involved pretreating mice with experimental compound, and administering 60 Hz of alternating current (50 mA) for 2 s via corneal electrodes. Prior to current administration, the animal's corneas were treated topically with 1% tetracaine. Animals are considered protected if the hindlimb tonic extensor component is absent. The scMET test was done by pretreating mice with experimental compound and administering 85 mg/kg Metrazol into the loose folds of the skin in the midline of the neck. Eighty-five mg/kg Metrazol is the dose that causes seizures in 97% (CD97) of control animals.

[2] = system: maximal electroshock (MES) model; assay: maximal electroshock (MES) model; assay type: in vivo, mouse; conditions: for responders at 30 mg/kg / responders at 100 mg/kg / responders at 300 mg/kg: Mus musculus, MES; for responders at 30 mg/kg: 30 mg/kg ip; for responders at 30 mg/kg / responders at 300 mg/kg: read-out: number of animals protected/number of animals tested; for responders at 100 mg/kg: 100 mg/kg ip, read-out: number of animals protected/number of animals tested (converted); for responders at 300 mg/kg: 300 mg/kg ip
Description: as §1, §3

[3] = Mus musculus, 6 Hz (32 mA), probit analysis, read-out: ED50

SMILES | ED50 (6 Hz (32 mA) model; 6 Hz (32 mA), probit analysis) [mg/kg] | complete protection, animals (6 Hz (32 mA) model; 100 mg/kg) | ED50 (6 Hz (32 mA) model; [3]) [mg/kg] | TD50 (rotorod test) | responders at 30 mg/kg ([1]; 0.5 h) [%] | responders at 30 mg/kg ([1]; 4 h) [%] | responders at 100 mg/kg ([1]; 0.5 h) [%] | responders at 100 mg/kg ([1]; 4 h) [%] | responders at 300 mg/kg ([1]; 0.5 h) [%] | responders at 300 mg/kg ([1]; 4 h) [%] | responders at 30 mg/kg ([2]; 0.5 h) [%] | responders at 30 mg/kg ([2]; 4 h) [%] | responders at 100 mg/kg ([2]; 0.5 h) [%] | responders at 100 mg/kg ([2]; 4 h) [%] | responders at 300 mg/kg ([2]; 0.5 h) [%] | responders at 300 mg/kg ([2]; 4 h) [%] | MES protection ([2]; any dose (30-300 mg/kg ip)) | antiseizure activity in the 6 Hz model (6 Hz (32 mA) model) | MES protection ([2]; 300 mg/kg dose) | MES protection, time points after dosing ([2]; 300 mg/kg dose) | also measured
CC(C)c1cc(C(O)C(F)(F)F)cc(Br)c1O (stereo not drawn) [RM122, 2-Bromo-6-isopropyl-4-(2,2,2-trifluoro-1-hydroxy-ethyl)-phenol] | 112.45 | 4 of 4 | 112 | 403 mg/kg and 403.12 mg/kg | 0 | 0 | 0 | 0 | 0 | 0 | 0 | 0 | 0 | 0 | 0 | 0 | no MES protection | – | – | – | –
CC(C)c1cc(C(O)C(F)(F)F)ccc1O (stereo not drawn) [RM125, 2-iso-Propyl-4-(2,2,2-trifluoro-1-hydroxy-ethyl)-phenol] | 84.12 | 4 of 4 | 84 | 161.12 mg/kg | 0 | 0 | 0 | 0 | 100 | 100 | 0 | 0 | 0 | 0 | 100 | 100 | – | relatively good antiseizure activity | some protection | protection at both 0.5 and 4 h | scMET protection, time points after dosing ([1]; 300 mg/kg dose): protection at the highest 300 mg/kg dose at 0.5 and 4 h; responders at 100 mg/kg ([2]; 0.25 h): 0%; responders at 100 mg/kg ([2]; 1 h): 33.3%; responders at 100 mg/kg ([2]; 2 h): 33.3%; responders at 100 mg/kg ([2]; 6 h): 0%
CCC(C)c1cc(C(O)C(F)(F)F)cc(Br)c1O (stereo not drawn) [RM129, 2-Bromo-6-sec-Butyl-4-(2,2,2-trifluoro-1-hydroxy-ethyl)-phenol] | – | 4 of 4 | – | 144.4 mg/kg | 0 | 0 | 0 | 0 | 0 | 0 | 0 | 0 | 0 | 0 | 100 | 0 | – | – | some protection | protected only at 0.5 h | ED50 (6 Hz (32 mA) model; Mus musculus): 87.6 mg/kg; responders at 100 mg/kg ([2]; 0.25 h): 0%; responders at 100 mg/kg ([2]; 1 h): 0%
CCC(C)c1cc(C(O)C(F)(F)F)ccc1O (stereo not drawn) [RM131, 2-sec-Butyl-4-(2,2,2-trifluoro-1-hydroxy-ethyl)-phenol] | 53.85 | 4 of 4 | 53.8 | 86 mg/kg and 86.04 mg/kg | 0 | 0 | 0 | 0 | 100 | 0 | 0 | 0 | 0 | 0 | 100 | 0 | – | relatively good antiseizure activity | some protection | protected only at 0.5 h | –
CCc1cc(C(O)C(F)(F)F)ccc1O (stereo not drawn) [RM166, 2-Ethyl-4-(2,2,2-trifluoro-1-hydroxy-ethyl)-phenol] | – | – | – | – | 0 | 0 | 0 | 0 | 0 | 0 | 0 | 0 | 0 | 0 | 0 | 0 | no MES protection | – | – | – | protective effects in the 6 Hz test (6 Hz (32 mA) model; 100 mg/kg, any time point from 0.25 to 4 h): no protective effects; Protective effects, number of animals protected/number of animals tested (6 Hz (32 mA) model; 6 Hz (32 mA), 0.25 h): 0/4; Protective effects, number of animals protected/number of animals tested (6 Hz (32 mA) model; 6 Hz (32 mA), 0.5 h): 0/4; Protective effects, number of animals protected/number of animals tested (6 Hz (32 mA) model; 6 Hz (32 mA), 1 h): 0/4; Protective effects, number of animals protected/number of animals tested (6 Hz (32 mA) model; 6 Hz (32 mA), 2 h): 0/4; Protective effects, number of animals protected/number of animals tested (6 Hz (32 mA) model; 6 Hz (32 mA), 4 h): 1/4; Toxicity, animals/number of animals tested (rotorod test; dose 100 mg/kg ip, 0.5 h): 0/8; Toxicity, animals/number of animals tested (rotorod test; dose 100 mg/kg ip, 4 h): 0/4; Toxicity, animals/number of animals tested (rotorod test; dose 30 ip, 0.5 h): 0/4; Toxicity, animals/number of animals tested (rotorod test; dose 30 ip, 4 h): 0/2; Toxicity, animals/number of animals tested (rotorod test; dose 300 ip, 0.5 h): 0/4; Toxicity, animals/number of animals tested (rotorod test; dose 300 ip, 4 h): 0/2; evidence of toxicity (rotorod test; doses up to 300 mg/kg): Neither RM170 nor RM166 showed any evidence of toxicity
